Laboratory results taken from patent publication US9682995B2, “Amino-substituted isothiazoles” (BAYER PHARMA AKTIENGESELLSCHAFT, priority 2013, dated 2017).

Key:
human kinase Mps-1 = human kinase Mps-1 (Homo sapiens (Human), UniProt P33981); test: Mps-1 kinase assay (TR-FRET); format: biochemical; settings: 10 μM ATP; read-out: Mps1 avg (IC50 [mol/l])
Method in brief: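 GST-tagged full-length human Mps-1 (~0.5 nM) preincubated 15 min with compound, then reacted 60 min at 22 °C with 10 μM ATP and 1 μM biotinylated peptide in Hepes pH 7.7 buffer. Phosphoproduct detected by TR-FRET (Eu anti-phospho-Ser/Thr, SA-XLent); 665/620 ratio normalised to no-inhibitor and no-enzyme controls.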

HeLa = test: Proliferation assay (crystal violet), HeLa; format: cell-based; settings: Homo sapiens, 96 h, 4 days, read-out: Inhibition of proliferation IC50 HeLa
Method in brief: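 Tumour cells seeded at 1000–5000 cells/well in medium with 10% FCS, dosed after 24 h at 0.001–10 μM (0.5% DMSO final) for 4 days. Cell number read by crystal-violet staining after glutaraldehyde fixation (A595), normalised to zero-point plate (0%) and untreated cells (100%); IC50 from 4-parameter fit.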

human kinase Mps-1, sequence (P33981 whole entry): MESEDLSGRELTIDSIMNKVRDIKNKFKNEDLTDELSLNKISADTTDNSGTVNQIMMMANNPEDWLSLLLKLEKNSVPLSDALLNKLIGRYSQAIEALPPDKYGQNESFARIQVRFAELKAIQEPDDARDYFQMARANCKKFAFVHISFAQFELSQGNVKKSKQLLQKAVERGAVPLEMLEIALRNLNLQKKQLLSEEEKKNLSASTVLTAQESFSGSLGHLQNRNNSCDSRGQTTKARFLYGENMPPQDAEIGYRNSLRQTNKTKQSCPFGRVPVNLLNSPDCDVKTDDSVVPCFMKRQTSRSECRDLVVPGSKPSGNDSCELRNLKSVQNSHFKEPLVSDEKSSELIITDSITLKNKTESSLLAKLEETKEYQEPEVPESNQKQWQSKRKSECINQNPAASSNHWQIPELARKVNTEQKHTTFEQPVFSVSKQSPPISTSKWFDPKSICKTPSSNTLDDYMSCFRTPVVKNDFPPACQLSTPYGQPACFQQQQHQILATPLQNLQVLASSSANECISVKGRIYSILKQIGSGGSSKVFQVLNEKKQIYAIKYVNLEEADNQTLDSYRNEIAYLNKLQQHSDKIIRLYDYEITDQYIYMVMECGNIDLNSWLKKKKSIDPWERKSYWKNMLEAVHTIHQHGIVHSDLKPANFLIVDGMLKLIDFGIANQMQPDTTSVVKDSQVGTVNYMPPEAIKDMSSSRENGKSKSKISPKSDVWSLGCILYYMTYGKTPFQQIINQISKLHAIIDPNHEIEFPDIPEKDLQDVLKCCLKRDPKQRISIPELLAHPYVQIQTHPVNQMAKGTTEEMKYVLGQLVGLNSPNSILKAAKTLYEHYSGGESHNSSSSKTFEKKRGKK

Row | SMILES | IC50 (human kinase Mps-1) | IC50 (HeLa)
1 | COC(=O)c1cnc(Nc2snc(C)c2C(=O)Nc2ccc(F)c(F)c2)cn1 [Example 59, Methyl 5-({4-[(3,4-difluorophenyl)carbamoyl]-3-methyl-1,2-thiazol-5-yl}amino)-pyrazine-2-carboxylate] | > 20 µM | 0.99 µM
2 | CCc1ccccc1NC(=O)c1c(C)nsc1Nc1ncccc1C(F)(F)F [Example 3, N-(2-Ethylphenyl)-3-methyl-5-{[3-(trifluoromethyl)pyridin-2-yl]amino}-1,2-thiazole-4-carboxamide] | > 20 µM | 7.7 µM
3 | Cc1nsc(Nc2cnc3cc(C(F)(F)F)ccc3n2)c1C(=O)Nc1ccc(F)c(F)c1 [Example 60, N-(3,4-Difluorophenyl)-3-methyl-5-{[6-(trifluoromethyl)quinoxalin-2-yl]amino}-1,2-thiazole-4-carboxamide] | > 20 µM | 0.73 µM
4 | Cc1nsc(Nc2cnc3cc(C(F)(F)F)ccc3n2)c1C(=O)Nc1ccc(Cl)c(Cl)c1 [Example 61, N-(3,4-Dichlorophenyl)-3-methyl-5-{[6-(trifluoromethyl)quinoxalin-2-yl]amino}-1,2-thiazole-4-carboxamide] | > 20 µM | 7.7 µM

Now from value to molecule:

Row | IC50 (human kinase Mps-1) | IC50 (HeLa) | SMILES
5 | > 20 µM | 1.2 µM | CCNC(=O)c1cncc(Nc2snc(C)c2C(=O)Nc2ccc(F)c(F)c2)n1 [Example 73, 6-({4-[(3,4-Difluorophenyl)carbamoyl]-3-methyl-1,2-thiazol-5-yl}amino)-N-ethylpyrazine-2-carboxamide]
6 | > 20 µM | 1 µM | COc1ccc(NC(=O)c2c(C)nsc2Nc2cnc(C(F)(F)F)cn2)cn1 [Example 85, N-(6-methoxypyridin-3-yl)-3-methyl-5-{[5-(trifluoromethyl)pyrazin-2-yl]amino}-1,2-thiazole-4-carboxamide]
7 | > 20 µM | 0.11 µM | Cc1nsc(Nc2cncc(C(F)(F)F)n2)c1C(=O)Nc1ccc(F)c(F)c1 [Example 82, N-(3,4-Difluorophenyl)-3-methyl-5-{[6-(trifluoromethyl)pyrazin-2-yl]amino}-1,2-thiazole-4-carboxamide]
8 | > 20 µM | 3.6 µM | COc1ccc(NC(=O)c2c(C)nsc2Nc2nc3cccnc3s2)cn1 [Example 89, N-(6-Methoxypyridin-3-yl)-3-methyl-5-([1,3]thiazolo[5,4-b]pyridin-2-ylamino)-1,2-thiazole-4-carboxamide]
